In the METLIN SMRT retention time set (Domingo-Almenara et al. 2019):

Experiment: gradient 5% acetonitrile 3 min, to 50% in 2 min, to 85% in 15 min, held 3 min, 100 µL/min
Conditions: column: Zorbax Extend-C18 2.1 x 50 mm; eluents: water / acetonitrile, 0.1% formic acid
Method in brief: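 Data were gathered over 3 months by HPLC coupled to a quadrupole time-of-flight mass spectrometer, operated in positive and negative ionization mode. Mixtures of ~100 pure standards ran on a Zorbax Extend-C18 column (2.1 × 50 mm, 1.8 μm) at 100 μL/min, with water and acetonitrile each containing 0.1% formic acid and dead and dwell volumes of 40 μL and 900 μL. Retention time was read from adduct peaks picked by computer and checked manually.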

| Compound | RP-LC retention time [s] |
| --- | --- |
| CCn1c(CCNC(=O)c2ccc(F)cc2F)nc2cccnc21 | 641 |
| CC(C)c1nnc(C2CN(Cc3cccc(C(F)(F)F)c3)CC23CCN(C)CC3)o1 (stereo not drawn) | 593 |
| CN1CCCN(C(=O)CN2CCCc3nc(C4CC4)ncc3C2=O)CC1 | 570 |
| COc1ccc(N2CCN(c3cc(SCC(=O)NCCCc4ccccc4)ncn3)CC2)cc1 | 1110 |
| Cn1nc(-c2nc(Cc3ccccc3)no2)c2c1CCN(C(=O)C1(c3ccccc3)CC1)C2 | 962 |
| CCNc1nc(C)cc(N2CCN(C(=O)Nc3cccc(Cl)c3)CC2)n1 | 695 |
| COc1cccc(C(=O)NC2(C(F)(F)F)C(=O)N(C3CCCC3)C(C)=C2C(C)=O)c1 (stereo not drawn) | 964 |
| COc1ccc(/C=C/c2nc(C#N)c(NCCCN(C)C)o2)cc1OC | 629 |
| O=C(NCc1cccs1)C1CCCN(C(=O)C2Sc3ccccc3NC2=O)C1 (stereo not drawn) | 725 |
| CCOC(=O)c1noc2nc(C)nc(NC(C)c3ccccc3)c12 (stereo not drawn) | 1140 |
| CCN1c2ccc(C)cc2C(=O)NC12CCN(C(=O)c1ccc(OC)c(OC)c1)CC2 | 744 |
| COc1ccc(S(=O)(=O)N2CC[C@H](n3c(=O)n(C)c4cccnc43)C2)cc1 | 794 |
| COC(=O)c1c(NCCc2c[nH]c3ccccc23)c2ccccc2[nH]c1=O | 744 |
| Cc1ccc(S(=O)(=O)N2CCC(CN3CCCC(C)C3)CC2)cc1Cl (stereo not drawn) | 683 |
| CCn1nnc2c(N3CCN(CC(=O)NC4CCCC4)CC3)ncnc21 | 550 |
| CCC1CCCCN1C(=O)c1cnc2nc(C)ccc2c1Nc1cc(F)ccc1C (stereo not drawn) | 705 |
| CCC1Oc2ccc(S(=O)(=O)N3CCC(C(=O)NCc4ccco4)CC3)cc2NC1=O (stereo not drawn) | 795 |
| CC(=O)Nc1ccc(-c2noc(C3CCN(C(=O)CCc4c[nH]c5ccccc45)CC3)n2)cc1 | 786 |
| CCCN1C(=O)COc2ccc(-c3noc(COc4ccc(F)cc4)n3)cc21 | 1090 |
| COc1cc(N)c(Cl)cc1C(=O)NC1CN2CCC1CC2 (stereo not drawn) | 615 |
| CC(NC(=O)CCCn1c2ccccc2c2cnn(C)c(=O)c21)c1ccccc1 (stereo not drawn) | 873 |
| CCCC(CCC)C(=O)Nc1cc(-c2cn3cccnc3n2)ccc1C | 758 |

| Compound | RP-LC retention time [s] |
| --- | --- |
| CCOC(=O)c1c(N)n(Cc2cccc(OC)c2)c2nc3ccccc3nc12 | 750 |
| COC(=O)c1ccc(NC(=O)N2CCCC2c2cc(C(C)C)on2)cc1 (stereo not drawn) | 890 |
| COc1ccc(-c2nc3cnccn3c2Nc2ccc(C)cc2Br)cc1 | 1040 |
| COc1cccc(S(=O)(=O)N2CCC(c3noc(-c4cnccn4)n3)C2)c1 (stereo not drawn) | 788 |
| COc1ccc(CNC2=NCCNC23CCN(S(=O)(=O)c2ccc(C)cc2C)CC3)cc1 | 775 |
| COc1ccc(NC(=O)Cn2c(C(C)C)nc3c(c2=O)CN(Cc2ccccc2)CC3)cc1 | 685 |
| CCOc1ccc(NC(=O)Cn2nc3c(N4CCSCC4)nccn3c2=O)cc1 | 816 |
| Cc1noc(-c2ccnc(-n3cnc(C(=O)NC4CCCCCC4)c3)c2)n1 | 915 |
| Cc1ccc(-c2cn3ccccc3n2)cc1NS(=O)(=O)c1ccc(Cl)cc1 | 692 |
| CCOC(=O)CCC(=O)NCC1CN(c2ccc(F)cc2)C(=O)O1 (stereo not drawn) | 666 |
| Cc1noc(C)c1CCC(=O)N1CCCC1CCc1ncc(C)n1CC1CC1 (stereo not drawn) | 662 |
| COC(=O)c1cc(C2CC2)nc2c1c(=O)n(Cc1ccccc1Cl)c(=O)n2C | 1130 |
| Cc1ccc(Cn2cccc2C(=O)C(=O)Nc2ccc3c(c2)OCCO3)cc1 | 1090 |
| CN(Cc1cccs1)C(=O)Nc1ccccc1 | 833 |
| Cc1nsc2ncc(C(=O)N3CCOCC3)c(N3CCC(C(=O)Nc4ccc(Cl)cc4)CC3)c12 | 846 |
| Cc1ccccc1Cn1nc2ccc(S(=O)(=O)N3CCCCCC3)cn2c1=O | 1020 |
| O=C(NC1CCCCC1)c1ccc(Nc2c(-c3ccc(Cl)cc3)nc3cnccn23)cc1 | 909 |
| Cc1cc2nn(CC(=O)NCc3ccccc3)c(=O)n2c(-c2cccc(F)c2)n1 | 627 |
| CC1=C(c2ccc(F)cc2)S(=O)(=O)N=C1N1CCCN(C(=O)c2ccco2)CC1 | 764 |
| COc1cc(Cl)ccc1-c1nc(-c2ccc3c(c2)ncn3CCC(=O)N2CCCC2)no1 | 786 |
| Cc1nc(C)c(C(=O)Nc2nc(-c3ccccc3)c(C)s2)s1 | 930 |
| CS(=O)(=O)N1CCC(F)(c2nc(-c3ccccc3)no2)CC1 | 913 |

| Compound | RP-LC retention time [s] |
| --- | --- |
| CC1CCCCC1Nc1nc(-c2ccc([N+](=O)[O-])cc2)nc2ccccc12 (stereo not drawn) | 950 |
| CCc1noc(C2(NC(=O)c3ccccc3Cl)CCCCC2)n1 | 936 |
| O=C1c2ccccc2C(=O)c2oc(-c3ccccc3)nc21 | 1150 |
| CCNc1nc(C)cc(N2CCN(S(=O)(=O)c3ccc(OC)cc3)CC2)n1 | 677 |
| COc1ccc(-n2nnc(C(=O)O)c2-c2ccccc2)cc1OC | 691 |
| Cc1cc(Cl)ccc1NS(=O)(=O)c1ccc2onc(C(=O)N3CCCC3)c2c1 | 1030 |
| O=C(Cc1csc2nc(-c3ccccc3)cn12)NC1CCCCCCC1 | 877 |
| Cn1c(NC(=O)c2cccc([N+](=O)[O-])c2)c(-c2cccs2)c(=O)c2ccccc21 | 701 |
| Cc1nc2c3ccccc3nc(NNC(=O)CCC(=O)N3CCN(c4ccccn4)CC3)n2n1 | 550 |
| Cc1ccc(NC(=O)N2C[C@@H](F)C[C@H]2C(=O)N2CCc3ccccc3C2)cc1C | 817 |
| Cc1noc([C@@H]2CN(Cc3ccc(OC(F)(F)F)cc3)C[C@H]2CO)n1 | 643 |
| CC1CCN(C(=O)CS(=O)Cc2cnn(-c3ccccc3)c2-n2cccc2)CC1 (stereo not drawn) | 828 |
| COC(=O)C1=CN(c2cc(F)ccc2C)c2ccccc2S1(=O)=O | 832 |
| CCCN(C)C(=O)c1ccc(-c2nnc3ccc(NC(=O)C4CCC4)cn23)cc1 | 760 |
| Cc1ccc(S(=O)(=O)c2cnc(N3CCN(Cc4ccc5c(c4)OCO5)CC3)nc2N)cc1 | 679 |
| Cc1noc2nc(C)n(CC(=O)Nc3ccc(F)cc3)c(=O)c12 | 765 |
| CC1CN(C(=O)CCC(=O)NCCCN2CCN(C3CCCCC3)CC2)c2ccccc2O1 (stereo not drawn) | 602 |
| O=C(NC1CC1)c1ccccc1OCC1CCCN(Cc2cc3ccccc3nc2Cl)C1 (stereo not drawn) | 650 |
| C=CCNC(=O)c1ccc2[nH]c(C)c(C)c2c1 | 568 |
| CN1C(=O)c2cc(C(=O)NCCc3ccccc3)nn2CC1(C)C(=O)NCc1ccccc1 (stereo not drawn) | 769 |
| CC(C)OCCCNC(=O)CCc1nnc2c3cc(-c4ccccc4)nn3ccn12 | 690 |
| CN1C(=O)C(C)(C(=O)NCc2ccc(Br)cc2)Oc2cccnc21 (stereo not drawn) | 837 |

| Compound | RP-LC retention time [s] |
| --- | --- |
| Cn1cc(-c2ccc(F)cc2)cc1C(=O)N1CCOCC1 | 811 |
| CCOC(=O)c1c(C)[nH]c(C(=O)N2CCC(C(C)C(=O)NCc3ccccc3C)CC2)c1C (stereo not drawn) | 851 |
| O=C(Nc1ccc2c(c1)OCCO2)c1ccnc(N2CCNC(c3ccccc3)C2)c1 (stereo not drawn) | 638 |
| Nc1nc(-c2ccc(Cl)cc2)nn1C(=O)C1CC1 | 945 |
| CN(C)C[C@@H]1CN(C)C[C@H]1NC(=O)NCc1ccc(OC(F)(F)F)cc1 | 588 |
| COc1ccc(OC)c2sc(NC(=O)c3ccc(Cl)s3)nc12 | 990 |
| c1ccc(OCc2nc(-c3ccc(-n4ccnc4)nc3)no2)cc1 | 689 |
| CCn1cc(-c2nc(C)c(C(=O)Nc3ccc(OC)cc3OC)s2)c2cccnc21 | 1050 |
| Cc1ccc(N2CC(c3nc(-c4ccccc4C)no3)CC2=O)cc1F (stereo not drawn) | 1130 |
| Cc1ccc(-c2nc(-c3ccc(NS(=O)(=O)c4cccs4)cc3)no2)cc1F | 1180 |
| COCCOCc1nc(C2CCCN2S(=O)(=O)c2cc(F)ccc2F)no1 (stereo not drawn) | 830 |
| CCOC(=O)c1c(S(=O)(=O)N2CCC(C(=O)NCc3ccccc3)CC2)c(C)n(C)c1C | 795 |
| COc1cc(OC)c(NC(=O)N2CCCC(C)(C(=O)NCc3ccccc3)C2)cc1Cl (stereo not drawn) | 897 |
| Cc1ccc(-c2noc(Cc3nnc(-c4ccc(C)c(C)c4)o3)n2)cc1 | 1200 |
| CC(C)N1CCn2cc(S(=O)(=O)NCc3ccc(F)cc3F)cc2C1=O | 763 |
| O=C(NCc1ccccc1F)c1c(O)c2cccnc2n(-c2cccc(F)c2)c1=O | 1170 |
| CCOc1ccc(NC(=O)N2CCCC(C)(C(=O)NCc3cccc(OC)c3)C2)cc1 (stereo not drawn) | 872 |
| O=C(Cn1cccc(-c2nc(-c3ccc(F)cc3)no2)c1=O)Nc1cc(F)ccc1F | 915 |
| Cc1nn(-c2ccc(C(=O)NCc3ccc4c(c3)OCO4)cc2)c2c1C(=O)CCC2 | 780 |
| CCCCCCCCc1ccc(CCC(N)(CO)CO)cc1 | 966 |
| CCC(CC)CN1CCC(n2c(C)cnc2-c2cccnc2)C1 (stereo not drawn) | 545 |
| Cc1nc(-c2cccc(NC(=O)c3coc(NC(=O)c4ccco4)n3)c2)cs1 | 688 |
